These results are taken from patent publication US4638088A, “Pesticidal biphenylyloxy and biphenylylalkoxy aryl acyl urea compounds” (Union Carbide Corporation, priority 1984, dated 1987).

For assay [1], the system named is Heliothis zea. Nature of the assay: Tobacco Budworm and Cotton Bollworm Leaf Spray Bait Test (cotton bollworm). It counts as in vivo. Particulars: Helicoverpa zea, 120 h, read-out: LC50 values, Heliothis Zea. The procedure:
(§1) Suspension of the test compounds were prepared by dissolving one gram of compound in 50 milliliters of acetone in which had been dissolved 0.1 gram (10 percent of the weight of compound) of an alkylphenoxy polyethoxyethanol surfactant, as an emulsifying or dispersing agent. The resulting solution was mixed into 150 milliliters of water to give roughly 200 milliliters of a suspension containing the compound in finely divided form. The thus-prepared stock suspension contained 0.5 percent by weight of compound. The test concentrations in parts per million by weight employed in the tests described hereinbelow were obtained by appropriate dilutions of the stock suspension with water. Certain of the test compounds were also prepared by dissolving 375 mg of compound in 7.5 ml of dimethylformamide. Fifteen milliliters of acetone containing 37.5 mg (10 percent of the weight of test compound) of an alkylphenoxy polyethoxyethanol surfactant, as a wetting/emulsifying/dispersing agent was added to the dimethylformamide solution. Fifty-two and one-half milliliters of water wasa mixed into the dimethylformamide-acetone mixture to give roughly 75 ml of a suspension containing the compound in solution or in finely divided form. The thus prepared stock suspension contained 0.5 percent by weight of compound. The test procedures were as follows:
(§2) Second instar larvae of the tobacco budworm (weighing about 4.5 mg) (Heliothis virescens, F.) and the cotton bollworm (weighing about 2.5 mg) (Heliothis zea, (Boddie)), obtained commercially and reared on artificial diet at a temperature of 80°±5° F. and a relative humidity of 50±5 percent, constituted the test insects.
(§3) Using a procedure similar to the above, but substituting cotton plants for snapbeans, treated and dried cotton leaves were introduced into 9 cm Petri dishes which were organized into groups of 10-dish sets. One randomly selected larvae was introduced into each dish of a ten dish set and the dishes were closed. The closed dishes were labelled and held at 80°±5° F. for five days. Larvae which were unable to move the length of the body, even upon stimulation, were considered dead. Percent mortality was recorded for various concentration levels. LC50 or concentration required to kill 50 percent of the larvae was determined from the mortality figures.

For assay [2], the system named is Heliothis virescens. Nature of the assay: Tobacco Budworm and Cotton Bollworm Leaf Spray Bait Test (tobacco budworm). It counts as in vivo. Particulars: 120 h, read-out: LC50 values, Heliothis Virescens. The procedure: as §1, §2, §3
The subject of assay [3] is two-spotted mite. Nature of the assay: Mite Larvacidal Test Method. Particulars: Tetranychus urticae, 144 h, two-spotted mite larvae, five to six days, read-out: Mortality Rating at 500 ppm, Larvae. It counts as in vivo. As to the method: Then the larvae are transferred to bean plants 6-8 inches in height. A sufficient number of larvae for testing (50-100) were transferred from TEPP treated leaves to the fresh plants in 24 hours.
Infested Tendergreen bean plants are placed on a revolving turntable. Test compounds are formulated with DMF, acetone, and a 3 to 1 mixture of Triton 172 and 152 (alkylphenoxy polyethoxyethanol surfactant mixture), respectively and then diluted in water to appropriate concentrations of chemical for application to the infested plants by use of a DeVilbiss spray gun with air pressure set at 40 pounds. The volume of 100 milliliters is sufficient to wet the plants to run off. A blank formulation is used for the control.
The treated plants are held at 80°±5° F. and 50±5 percent relative humidity for a period of five to six days, when mortality counts of the larvae are made.

The subject of assay [4] is Mexican bean beetle. Nature of the assay: Mexican Bean Beetle Leaf Spray Test. The format is in vivo, Epilachna varivestic. The conditions noted are these: Epilachna varivestis, 120 h, Mexican Bean Beetle larvae, five days, read-out: Activity at 500 ppm, MBB. The procedure: as §1
Fourth instar larvae of the Mexican bean beetle (Epilachna varivestic, Muls.), reared on Tendergreen bean plants at a temperature of 80°±5° F. and 50±5 percent relative humidity, were the test insects. For certain of the tests second instar larvae (weighting about 6 mg) of the Mexican bean beetle (Epilachna varaivestis, Muls.), reared on Sieva Pole lime bean plants at a temperature of 80°±5° F. and 50±5 percent relative humidity, were the test insects.
The test compounds were formulated by diluting the stock suspension with water to give a suspension containing 500 parts of test compound per million parts of final formulation. Potted Tendergreen bean plants of standard height and age were placed on a revolving turntable and sprayed with 100-110 milliliters of test compound formulation by use of a DeVilbiss spray gun set at 40 psig air pressure. This application, which lasted 25 seconds, was sufficient to wet plants to run-off. As a control, 100-110 milliliters of a water-acetone-emulsifier solution containing no test compound was also sprayed on infested plants. When dry, the paired leaves were separated and each was placed in a 9 centimeter Petri dish lined with moistened filter paper. Five randomly selected larvae were introduced into each dish, and the dishes were closed. The closed dishes were labeled and held at a temperature of 80°±5° F., for five days. Although the larvae could easily consume the leaf within 24 to 48 hours, no more food was added. Larvae which were unable to move the length of the body, even upon stimulation, were considered dead. Percent mortality was recorded for various concentration levels.

For assay [5], the system named is southern armyworm. The assay can be described thus: Southern Armyworm Leaf Spray Bait Test. It counts as in vivo. Particulars: Spodoptera eridania, 120 h, read-out: Activity at 500 ppm, SAW, 500 ppm; Southern Armyworm larvae; up to five days. As to the method: as §1
Larvae of the southern armyworm (Spodoptera eridania, (Cram.), reared on Tendergreen bean plants at a temperature of 80°±5° F. and a relative humidity of 50±5 percent, constituted the test insects.
Potted Tendergreen bean plants of standarad height and age were placed on a revolving turntable and sprayed with 100-110 milliliters of test compound formulation by use of a DeVilbiss spray gun set at 40 psig air pressure. This application, which lasted 25 seconds, was sufficient to wet plants to run-off. As a control, 100-110 milliliters of a water-acetone-emulsifier solution containing no test compound was also sprayed on infested plants. When dry, the paired leaves were separated and each one was placed in a 9 centimeter Petri dish lined with moistened filter paper. Five randomly selected larvae were introduced into each dish and the dishes were closed. The closed dishes were labeled and held at 80°-85° F. for up to five days. Although the larvae could easily consume the whole leaf within twenty-four hours, no more food was added. Larvae which were unable to move the length of the body, even upon stimulation by prodding, were considered dead. Percent mortality was recorded for various concentration levels.

Setting [6] is: Heliothis Zea, second instar larvae, five days.

Structures are written as SMILES. In brackets after ≈: the same amount, converted by molar mass. Read-outs that look alike come from different tables or passages of the source.

As to `Cc1cc(NC(=O)NC(=O)c2c(F)cccc2F)c(C)c(Cl)c1Oc1ccc(Cl)cc1-c1ccccc1` [Example 38], the LC50 – broadly, the concentration lethal to half of the exposed cells or organisms – worked out at 1.6 µg/mL (≈ 2.96 µM) in assay [1] (setting [6]) and 1.9 µg/mL (≈ 3.51 µM) in assay [2].
The matching figures for `Cc1cc(NC(=O)NC(=O)c2ccccc2Cl)c(C)c(Cl)c1Oc1ccccc1-c1ccccc1` [Example 37]: 1.7 µg/mL (≈ 3.36 µM) and 4 µg/mL (≈ 7.91 µM).
In the same order, the values of `Cc1cc(NC(=O)NC(=O)c2c(F)cccc2F)c(C)c(Cl)c1Oc1ccccc1-c1ccccc1` [Example 36] are 2.2 µg/mL (≈ 4.34 µM) and 9 µg/mL (≈ 17.8 µM).
`Cc1cc(NC(=O)NC(=O)c2c(F)cccc2Cl)c(C)c(Cl)c1Oc1ccccc1-c1ccccc1` [Example 40]: the mortality at 500 ppm in assay [3] was in the range of 71 to 100%.
For `O=C(NC(=O)c1c(F)cccc1F)Nc1cc(Cl)c(OCc2ccccc2-c2ccccc2)c(Cl)c1` [Example 39], the figures for the LC50 in assay [1] (setting [6]) and in assay [2] were 5 µg/mL (≈ 9.48 µM) and 16 µg/mL (≈ 30.3 µM), respectively.
Turning to `Cc1cc(Oc2ccccc2-c2ccccc2)c(Cl)cc1NC(=O)NC(=O)c1ccccc1C(F)(F)F` [Example 27], the mortality at 500 ppm in assay [4] and in assay [5] was 0 to 30% throughout.
As for `O=C(NC(=O)c1c(F)cccc1F)Nc1cc(Cl)c(Oc2cccc3ccccc23)c(Cl)c1` [Comparative Example K, reference compound], the 50% lethal concentration (LC50) is 30 µg/mL (≈ 61.6 µM) in assay [1] (setting [6]) and 500 µg/mL (≈ 1030 µM) in assay [2].
`Cc1cc(NC(=O)NC(=O)c2ccccc2F)c(C)c(Cl)c1Oc1ccc(-c2ccccc2)cc1Cl` [Example 15]: the mortality at 500 ppm in assay [4] and in assay [5] was 71 to 100% throughout.
Consider `Cc1cc(Oc2ccccc2-c2ccccc2)c(Cl)cc1NC(=O)NC(=O)c1ccccc1Cl` [Example 21], for which the mortality at 500 ppm in assay [4] and in assay [5] was 71 to 100% in each case.
`O=C(NC(=O)c1c(F)cccc1F)Nc1ccc(Cl)cc1` [Comparative Example A, reference compound]: the LC50 in assay [1] came out at 500 µg/mL (≈ 1610 µM); in assay [2], 31 µg/mL (≈ 99.8 µM).
Consider `O=C(NC(=S)Nc1cc(Cl)c(OCc2ccccc2-c2ccccc2)c(Cl)c1)c1ccccc1Cl` [Example 29], for which the mortality at 500 ppm in assay [4] and in assay [5] was 71 to 100% in each case.
`O=C(NC(=O)c1c(F)cccc1F)Nc1cc(Cl)c(Oc2ccccc2-c2ccccc2)c(Cl)c1` [Example 31]: the mortality at 500 ppm in assay [4] and in assay [5] was 71 to 100% each time.
Consider `Cc1ccc(Oc2ccc(NC(=O)NC(=O)c3c(F)cccc3F)cc2Cl)c(C)c1` [Comparative Example J, reference compound], for which the LC50 in assay [1] (setting [6]) and in assay [2] was more than 100 µg/mL throughout.
As for `Cc1cc(NC(=S)NC(=O)c2ccccc2Cl)c(C)c(Cl)c1Oc1ccc(Br)cc1-c1ccccc1` [Example 13], the mortality at 500 ppm in assay [4] and in assay [5] was 0 to 30% in each case.
As to `Cc1cc(NC(=O)NC(=O)c2c(F)cccc2F)c(C)c(Cl)c1Oc1ccc(Cl)cc1-c1ccccc1` [Example 20], the mortality at 500 ppm in assay [4] and in assay [5] was 71 to 100% throughout.
In the case of `Cc1cc(NC(=O)NC(=O)c2c(F)cccc2F)c(C)c(Cl)c1Oc1ccc(-c2ccccc2)cc1` [Example 11], the mortality at 500 ppm in assay [4] and in assay [5] was 71 to 100% throughout.
`Cc1cc(NC(=O)NC(=O)c2ccccc2Cl)c(C)c(Cl)c1Oc1ccc(Cl)cc1-c1ccccc1` [Example 17]: the mortality at 500 ppm in assay [4] and in assay [5] was 71 to 100% in each case.
For `Cc1cc(NC(=O)NC(=O)c2c(F)cccc2F)c(C)c(Cl)c1Oc1ccc(Br)cc1-c1ccccc1` [Example 25], the mortality at 500 ppm in assay [4] and in assay [5] was 71 to 100% in each case.
